The results in this text go back to paper PMC11407758, “Integrated stress response (ISR) activation and apoptosis through HRI kinase by PG3 and other p53 pathway-restoring cancer therapeutics” (Oncotarget, 2024).

What all share (type): cell-based, human
The test system of assay [1] is GCN2, PKR, eIF2α, ATF4, CHOP in HT29 cells. Put plainly: Western blot, ISR kinases / eIF2α / ATF4 / CHOP. Conditions: pre-treatment 2 hours, then ONC201 or PG3 for 24 hour. How it is done: Figure 7 PG3 induces upregulation of ATF4 through ISR via HRI. (A) HT29 cells were treated with PG3, GSK2606414, TG and ONC201 respectively, or co-treatment with PG3/GSK2606414, PG3/TG, and PG3/ONC201 for 15 h. (B) MEF, MEF^PERK−/− and MEF^GCN2−/− cells were treated with PG3 and ONC201 for 16 hours. (C) HT29 cells were transfected with siControl, siPKR, siHRI and siPKR/siHRI for 24 hours and then treated with PG3 for 16 hours. (D) HCT116 p53^−/− cells were transfected with siControl and siHRI for 24 hours and then treated with PG3 for 16 hours. (E) HCT116 p53^−/− cells were treated with PG3 and ONC201 for indicated times. (F) PANC1-sgCtrl, -sgHRI and -sgPKR cell lines were treated with PG3 and imipridones (ONC201, ONC206 and ONC212) for 16 hours. Western blot was performed using indicated antibodies. (G) Proposed model of PG3-induced cell apoptosis through HRI/ATF4/PUMA axis. Abbreviation: L.E.: Long exposure.
(§1) After treatment, protein lysates were collected for Western blot analysis. A total of 15 μg of protein was used for SDS-PAGE. After primary and secondary antibody incubations, the signal was detected by a chemiluminescence detection kit, imaged by Syngene (Imgen Technologies). Antibodies for NAG-1 (GDF15) and P53 were from Santa Cruz Biotechnology; for caspase 8, cleaved caspase 8, caspase 9, caspase 3, cleavage PARP, eIF2α, p-eIF2α (Ser51), CHOP, ATF4, DR5, and PUMA were from Cell Signaling Technology. Noxa and p21 were from Calbiochem. Ran was from BD Biosciences.
Supplementary Figure 2: ROS and NO are not responsible for PG3-induced HRI activation. (A, B) cells were pre-treated
with ZnPP, L-NMMA, SA and NAC for 2 hours respectively, and then ONC201 or PG3 was added to the medium for 24 hour treatment.
Western blot was performed using indicated antibodies.
(1 picture or pasted object on this page, not shown here)
For orientation: In western blotting, separated proteins are transferred to a membrane and probed.

The test system of a further assay is DR5. Description: Western blot, DR5 induction. Conditions: five cell lines, 24 h. How it is done:
(§2) Figure 4 Activation of ATF4 and up-regulation of typical p53 target genes. (A–E) Western blot analysis of p53 protein levels and upregulation of ATF4, PUMA, DR5 and p21. Cells were treated for 24 h with indicated compounds, concentrations and cell lines. Abbreviations: S.E.: Short exposure; L.E.: Long exposure.
as §1

In a further assay the test system is HCT116 (WT). Description: Cell viability assay (CellTiterGlo), HCT116 WT. The settings on record: p53 wild-type HCT116, 6.67 μM. How it is done:
(§3) Figure 1 PG3 inhibits cell proliferation and growth in a p53-indepent manner. (A–E) Cell viability assay, dose response curves and IC50 value measurements in a panel of cancer cell lines and normal cells. Cells were treated with different concentrations of PG3, PG3-Oc (Oc), obatoclax (Ob), prodigiosin (P) or DMSO for 72 h. Luciferase activity was imaged by the IVIS Imaging System after treatment. Cell viability data were normalized to those of DMSO treatment control in each cell line and data analyses were performed using PRISM4 software. IC50 data are expressed as the mean ±SD (normal; n = 3).
as §3, with “2 p53-dependent inhibition of” for “1 PG3 inhibits”, “is only observed at specific concentrations. (A–J)” for “and growth in a p53-indepent manner. (A–E)”, “ZMC1, CP-313908, APR-246, Ellipticine, Nutalin-3a” for “PG3, PG3-Oc (Oc), obatoclax (Ob), prodigiosin (P)”
(§4) Cells were seeded in 96-well plates (6 × 10^3 cells/well). Cells were treated with different concentrations of compounds or dimethyl sulfoxide (DMSO) as a control for 72 hours. The cell viability was assessed by CellTiterGlo bioluminescent cell viability assay (Promega), following the manufacturer’s protocol. Bioluminescence imaging was measured using the IVIS imager. The percentage of cell viability (mean ± SEM) at each dose was calculated against the respective DMSO control. The IC50 values were determined from the sigmoidal dose-response curves using GraphPad Prism.
Background: In ATP-based viability assays light output follows the ATP content of the culture.

Another assay deals with p53 protein. Put plainly: Western blot, p53 protein levels. Here is the method:
Cells were treated for 24 h with indicated compounds, concentrations and cell lines. Abbreviations: S.E.: Short exposure; L.E.: Long exposure.
as §1

Assay [2] has as its system HT29, TOV-112D, isogenic HCT116 cell lines, HFF-1 and MRC5. Description: Cell viability assay, panel of cancer cell lines and normal cells (results in words). How it is done:
as §3, with “2 p53-dependent inhibition of” for “1 PG3 inhibits”, “is only observed at specific concentrations. (A–J)” for “and growth in a p53-indepent manner. (A–E)”, “ZMC1, CP-313908, APR-246, Ellipticine, Nutalin-3a” for “PG3, PG3-Oc (Oc), obatoclax (Ob), prodigiosin (P)”
as §4

The next assay concerns p21. Put plainly: Western blot, p21 induction. Conditions: HCT116 (p53 wild-type), 24 h. Here is the method:
as §2, §1

In another assay the test system is PUMA. Put plainly: Western blot, PUMA induction. The settings on record: HCT116 (p53 wild-type), 24 h. How it is done: as §2, §1
In another assay the test system is ATF4. Put plainly: Western blot, ATF4 induction. The settings on record: five cancer cell lines, 24 h. How it is done: as §2, §1

For the molecule `CC(=O)N[C@@H](CS)C(=O)O` [NAC, N-acetylcysteine], in assay [1], the “effect on PG3- or ONC201-induced upregulation of ATF4” value is given as “do not attenuate or block”.

On to `COc1ccc(C2=N[C@@H](c3ccc(Cl)cc3)[C@@H](c3ccc(Cl)cc3)N2C(=O)N2CCNC(=O)C2)c(OC(C)C)c1` [Nutlin-3a], for which the “upregulation of DR5” value in the assay on DR5 was “does not upregulate DR5”. Moreover, the inhibition of viability result in the assay on HCT116 (WT) was “selectively inhibits the viability”. The “wild-type p53 protein level” value in the assay on p53 protein (HCT116, 24 h) is listed as “stabilizes”. Also, the “endogenous mutant p53 R273H protein level” value in the assay on p53 protein (HT29, 24 h) is given as “no effects”. In the assay with p53 protein (TOV-112D, 24 h), the “endogenous mutant p53 R175H protein level” value was “no effects”. For the same molecule, the “exogenous mutant p53 R175H protein level” value with p53 protein (engineered HCT116-R175H cells, 24 h) is listed as “no effects”. Also, the inhibitory activity entry in assay [2] (HT29 and TOV-112D) is on record as “shows inhibitory activity”. Also, the effect on viability entry in assay [2] (p53-null and p53 R175H HCT116, 6.67 μM) is reported as “no significant effects”. Further, the “upregulation of p21” value in the assay on p21 is recorded as “significantly upregulates”. Also, the “upregulation of PUMA” value in the assay with PUMA is reported as “significantly upregulates”. In addition, in the assay with ATF4, the “upregulation of ATF4” value was “do not upregulate ATF4”.

As to `C=CC1=C(C)c2cc3[n-]c(cc4nc(cc5[n-]c(cc1n2)c(C)c5C=C)C(C)=C4CCC(=O)O)c(CCC(=O)O)c3C.[Zn+2]` [ZnPP, Zinc protoporphyrin], the “effect on PG3- or ONC201-induced upregulation of ATF4” value in assay [1] is listed as “do not attenuate or block”.
